Test results published in patent US20250177363A1, “SUBSTITUTED IMIDAZOPYRIDINYL COMPOUNDS USEFUL AS INHIBITORS OF TLR9” (Bristol-Myers Squibb Company, priority 2022, published 2025).

Columns and labels:
Assay type in all cases: cell-based
human TLR7 = molecular target: T1, human TLR7 (Homo sapiens, UniProt Q9NYK1); assay: TLR7 inhibition reporter assay (HEK-Blue, SEAP); conditions: HEK-Blue cells overexpressing human TLR7, ligand gardiquimod 2.5 μM, 22 hour incubation
T1 construct: host or cells: HEK-Blue cells
T1 sequence (Q9NYK1 27-1049): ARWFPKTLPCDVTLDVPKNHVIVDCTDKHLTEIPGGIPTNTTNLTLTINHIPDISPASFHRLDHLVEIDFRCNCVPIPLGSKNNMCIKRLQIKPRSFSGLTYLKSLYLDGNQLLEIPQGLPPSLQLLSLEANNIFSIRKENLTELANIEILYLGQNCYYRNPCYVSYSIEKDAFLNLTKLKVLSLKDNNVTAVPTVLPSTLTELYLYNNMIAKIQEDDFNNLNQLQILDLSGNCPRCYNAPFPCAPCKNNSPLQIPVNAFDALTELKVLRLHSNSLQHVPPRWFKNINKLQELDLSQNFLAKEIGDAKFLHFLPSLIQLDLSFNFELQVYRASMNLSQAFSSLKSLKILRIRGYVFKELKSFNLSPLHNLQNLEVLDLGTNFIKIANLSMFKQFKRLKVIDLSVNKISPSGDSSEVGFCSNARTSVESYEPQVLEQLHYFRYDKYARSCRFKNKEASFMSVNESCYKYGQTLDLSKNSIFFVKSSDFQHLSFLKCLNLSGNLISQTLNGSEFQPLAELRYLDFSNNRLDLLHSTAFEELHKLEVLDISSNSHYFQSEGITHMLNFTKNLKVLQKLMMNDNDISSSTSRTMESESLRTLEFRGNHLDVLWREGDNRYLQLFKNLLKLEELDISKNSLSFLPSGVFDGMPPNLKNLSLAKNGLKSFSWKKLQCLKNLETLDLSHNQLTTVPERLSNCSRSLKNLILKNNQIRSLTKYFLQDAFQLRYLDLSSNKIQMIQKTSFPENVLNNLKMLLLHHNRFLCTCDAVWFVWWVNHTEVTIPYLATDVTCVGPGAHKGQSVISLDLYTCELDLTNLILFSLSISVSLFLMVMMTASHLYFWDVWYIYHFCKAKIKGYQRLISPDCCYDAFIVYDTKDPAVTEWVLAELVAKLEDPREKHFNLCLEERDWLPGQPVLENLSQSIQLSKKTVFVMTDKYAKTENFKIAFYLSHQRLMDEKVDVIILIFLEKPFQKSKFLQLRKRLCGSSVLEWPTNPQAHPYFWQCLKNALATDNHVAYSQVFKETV
Method: (§1) TLR7/8/9 Inhibition Reporter Assays
(§2) HEK-Blue™-cells (Invivogen) overexpressing human TLR7. TLR8 or TLR9 receptors were used for screening inhibitors of these receptors using an inducible SEAP (secreted embryonic alkaline phosphatase) reporter gene under the control of the IFN-β minimal promoter fused to five NF-κB and AP-1-binding sites. Cells are seeded into Greiner 384 well plates (15000 cells per well) that are pre dispensed (by ECHO) with testing compounds in DMSO to yield a final dose response concentration range of 0.85 nM-50 μM. After a 60 minute compound pre-treatment in 37 degree incubator, the cells are then stimulated with a TLR7 ligand (gardiquimod at a final concentration of 2.5 μM), TLR8 ligand (R848 at a final concentration of 14.25 μM) or TLR9 ligand (ODN2006 at a final concentration of 200 nM) to activate NF-κB and AP-1 which induce the production of SEAP. After a 22 hour incubation at 37° C., 5% CO2, SEAP levels are determined with the addition of HEK-Blue™ Detection reagent (Invivogen), a cell culture medium that allows for detection of SEAP, according to manufacturer's specifications. The percent inhibition is determined as the % reduction in the HEK-Blue signal present in […].

human TLR8 = molecular target: T2, human TLR8 (Homo sapiens, UniProt Q9NR97); assay: TLR8 inhibition reporter assay (HEK-Blue, SEAP); conditions: HEK-Blue cells overexpressing human TLR8, ligand R848 14.25 μM, 22 hour incubation
T2 construct: host or cells: HEK-Blue cells
T2 sequence (Q9NR97 27-1041): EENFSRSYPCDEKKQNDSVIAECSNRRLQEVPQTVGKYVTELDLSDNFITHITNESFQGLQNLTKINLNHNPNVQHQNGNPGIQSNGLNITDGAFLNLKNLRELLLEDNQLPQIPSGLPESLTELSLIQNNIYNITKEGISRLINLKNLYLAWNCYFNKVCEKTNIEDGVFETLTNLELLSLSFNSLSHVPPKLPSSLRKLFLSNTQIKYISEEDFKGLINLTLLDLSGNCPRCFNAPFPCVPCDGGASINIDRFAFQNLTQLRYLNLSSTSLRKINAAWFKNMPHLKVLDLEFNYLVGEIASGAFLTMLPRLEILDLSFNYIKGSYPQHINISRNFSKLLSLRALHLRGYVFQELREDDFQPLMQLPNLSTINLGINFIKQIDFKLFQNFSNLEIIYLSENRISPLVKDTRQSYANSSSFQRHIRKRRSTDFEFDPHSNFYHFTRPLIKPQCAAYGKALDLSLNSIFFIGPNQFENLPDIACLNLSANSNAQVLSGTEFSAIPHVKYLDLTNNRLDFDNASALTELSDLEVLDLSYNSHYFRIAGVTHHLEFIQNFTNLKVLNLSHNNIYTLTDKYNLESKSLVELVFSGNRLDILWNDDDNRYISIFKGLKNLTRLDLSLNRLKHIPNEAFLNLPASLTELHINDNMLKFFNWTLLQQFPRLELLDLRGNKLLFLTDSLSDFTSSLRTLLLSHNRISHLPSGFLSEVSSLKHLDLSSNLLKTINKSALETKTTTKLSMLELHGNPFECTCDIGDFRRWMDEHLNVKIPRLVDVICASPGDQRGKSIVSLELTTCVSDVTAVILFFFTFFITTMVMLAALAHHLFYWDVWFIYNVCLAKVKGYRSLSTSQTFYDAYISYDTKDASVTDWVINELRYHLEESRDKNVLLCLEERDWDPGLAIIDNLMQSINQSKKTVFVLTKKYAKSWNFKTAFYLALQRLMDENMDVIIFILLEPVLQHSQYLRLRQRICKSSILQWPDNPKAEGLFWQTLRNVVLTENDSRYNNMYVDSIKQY
Method: as §1, §2

human TLR9 = molecular target: T3, human TLR9 (Homo sapiens, UniProt Q9NR96); assay: TLR9 inhibition reporter assay (HEK-Blue, SEAP); conditions: HEK-Blue cells overexpressing human TLR9, ligand ODN2006 200 nM, 22 hour incubation
T3 construct: host or cells: HEK-Blue cells
T3 sequence (Q9NR96 26-1032): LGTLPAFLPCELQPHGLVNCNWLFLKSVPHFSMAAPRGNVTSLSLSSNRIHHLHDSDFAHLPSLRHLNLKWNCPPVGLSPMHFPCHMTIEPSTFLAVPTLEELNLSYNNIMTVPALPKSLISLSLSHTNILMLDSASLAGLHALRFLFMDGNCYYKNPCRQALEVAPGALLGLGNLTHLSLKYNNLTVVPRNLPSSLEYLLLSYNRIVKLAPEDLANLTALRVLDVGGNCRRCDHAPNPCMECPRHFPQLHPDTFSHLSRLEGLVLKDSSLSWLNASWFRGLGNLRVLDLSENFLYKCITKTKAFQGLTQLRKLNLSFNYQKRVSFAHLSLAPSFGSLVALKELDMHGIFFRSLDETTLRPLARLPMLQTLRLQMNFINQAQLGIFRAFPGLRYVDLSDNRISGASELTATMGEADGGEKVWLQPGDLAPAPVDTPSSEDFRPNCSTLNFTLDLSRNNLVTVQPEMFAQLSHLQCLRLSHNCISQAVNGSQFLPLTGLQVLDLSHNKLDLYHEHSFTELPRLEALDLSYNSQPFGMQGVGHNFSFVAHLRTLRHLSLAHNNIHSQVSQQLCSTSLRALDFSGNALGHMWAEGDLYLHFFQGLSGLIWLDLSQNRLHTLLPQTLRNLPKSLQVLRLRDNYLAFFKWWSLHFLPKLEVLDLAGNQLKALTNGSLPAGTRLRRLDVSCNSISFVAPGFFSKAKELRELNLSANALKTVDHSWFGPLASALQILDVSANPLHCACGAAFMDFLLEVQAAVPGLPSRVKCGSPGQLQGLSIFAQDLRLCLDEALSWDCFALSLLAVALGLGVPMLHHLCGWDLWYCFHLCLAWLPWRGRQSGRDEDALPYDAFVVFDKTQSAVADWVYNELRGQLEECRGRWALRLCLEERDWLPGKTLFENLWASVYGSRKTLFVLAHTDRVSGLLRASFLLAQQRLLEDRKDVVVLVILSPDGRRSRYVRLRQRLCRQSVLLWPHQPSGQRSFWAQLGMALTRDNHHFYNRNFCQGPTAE
Method: as §1, §2

IC50 (human TLR7) [µM] | IC50 (human TLR8) [µM] | IC50 (human TLR9) [µM] | SMILES
> 50 | > 50 | 1.7 | Cc1cc(-c2ccc(N3CCN(CC(C)C)CC3)cc2)nc2c1nc(-c1ccc(S(C)(=O)=O)cc1)n2C [Example 8, 5-(4-(4-isobutylpiperazin-1-yl)phenyl)-3,7-dimethyl-2-(4-(methylsulfonyl)phenyl)-3H-imidazo[4,5-b]pyridine]
13 | > 50 | 1.7 | Cc1cc(-c2ccc(C3CCN(C)CC3)cc2)nc2c1nc(-c1ccc(S(C)(=O)=O)cc1)n2C1CC1 [Example 9, 3-cyclopropyl-7-methyl-5-(4-(1-methylpiperidin-4-yl)phenyl)-2-(4-(methylsulfonyl)phenyl)-3H-imidazo[4,5-b]pyridine]
1.9 | 17 | 0.75 | COc1ccc(-c2nc3c(C)cc(-c4ccc(N5CCN(C(C)C)CC5)cc4)nc3n2C)cc1OC [Example 10, 2-(3,4-dimethoxyphenyl)-5-(4-(4-isopropylpiperazin-1-yl)phenyl)-3,7-dimethyl-3H-imidazo[4,5-b]pyridine]
> 25 | > 25 | 1.2 | COc1ccc(-c2nc3ncc(C4CCN(C5CCN(C6CC6)CC5)CC4)cc3[nH]2)cc1OC [Example 13, 6-(1′-cyclopropyl-[1,4′-bipiperidin]-4-yl)-2-(3,4-dimethoxyphenyl)-1H-imidazo[4,5-b]pyridine]
> 50 | > 50 | 3.1 | CC(C)N1CCC(N2CCC(c3cnc4nc(-c5ccc(S(C)(=O)=O)cc5)n(C)c4c3)CC2)CC1 [Example 14, 6-(1′-isopropyl-[1,4′-bipiperidin]-4-yl)-1-methyl-2-(4-(methylsulfonyl)phenyl)-1H-imidazo[4,5-b]pyridine]
6.4 | > 25 | 0.16 | CC(C)CN1CCC(N2CCC(c3cnc4nc(-c5ccc(S(C)(=O)=O)cc5)n(C)c4c3)CC2)CC1 [Example 15, 6-(1′-isobutyl-[1,4′-bipiperidin]-4-yl)-1-methyl-2-(4-(methylsulfonyl)phenyl)-1H-imidazo[4,5-b]pyridine]
> 25 | > 25 | 1.4 | Cn1c(-c2ccc(S(C)(=O)=O)cc2)nc2ncc(C3CCN(C4CCN(C5CC5)CC4)CC3)cc21 [Example 16, 6-(1′-cyclopropyl-[1,4′-bipiperidin]-4-yl)-1-methyl-2-(4-(methylsulfonyl)phenyl)-1H-imidazo[4,5-b]pyridine]
18 | > 50 | 0.071 | CC(C)N1CCC(N2CCC(c3ccc4nc(-c5ccc(S(C)(=O)=O)cc5)n(C)c4n3)CC2)CC1 [Example 17, 5-(1′-isopropyl-[1,4′-bipiperidin]-4-yl)-3-methyl-2-(4-(methylsulfonyl)phenyl)-3H-imidazo[4,5-b]pyridine]
2.8 | > 25 | 0.78 | CC(C)CN1CCC(N2CCC(c3ccc4nc(-c5ccc(S(C)(=O)=O)cc5)n(C)c4n3)CC2)CC1 [Example 18, 5-(1′-isobutyl-[1,4′-bipiperidin]-4-yl)-3-methyl-2-(4-(methylsulfonyl)phenyl)-3H-imidazo[4,5-b]pyridine]
18 | > 25 | 0.87 | Cn1c(-c2ccc(S(C)(=O)=O)cc2)nc2ccc(C3CCN(C4CCN(C5CC5)CC4)CC3)nc21 [Example 19, 5-(1′-cyclopropyl-[1,4′-bipiperidin]-4-yl)-3-methyl-2-(4-(methylsulfonyl)phenyl)-3H-imidazo[4,5-b]pyridine]
1.4 | > 50 | 0.025 | Cc1cc(C2CCN(C3CCN(C(C)C)CC3)CC2)nc2c1nc(-c1ccc(S(C)(=O)=O)cc1)n2C [Example 20, 5-(1′-isopropyl-[1,4′-bipiperidin]-4-yl)-3,7-dimethyl-2-(4-(methylsulfonyl)phenyl)-3H-imidazo[4,5-b]pyridine]
4.4 | > 50 | 0.024 | Cc1cc(C2CCN(C3CCN(CC(C)C)CC3)CC2)nc2c1nc(-c1ccc(S(C)(=O)=O)cc1)n2C [Example 21, 5-(1′-isobutyl-[1,4′-bipiperidin]-4-yl)-3,7-dimethyl-2-(4-(methylsulfonyl)phenyl)-3H-imidazo[4,5-b]pyridine]
